Test results taken from patent publication US20250127162A1, “METHODS AND COMPOSITIONS FOR CONTROLLING PESTS IN RICE” (Globachem NV, priority 2022, published 2025).

Tested on: Chilo suppressalis
Test: Rice field trials, Chilo suppressalis insect damage / white heads (Example 1, Trials 3-4, Thailand)
Format: in vivo
Conditions: for percent reduction in insect damage relative to untreated control: UTC given as 0
Protocol: All applications were made with an EC formulation containing 650 g/L of pelargonic acid (e.g., 685 g/L of 95% purity pelargonic acid), an anionic emulsifier and a branched fatty acid ester solvent. […] Trials 1 4 assessing the use of pelargonic acid for controlling Chilo suppressalis in rice were conducted in Spain and Thailand. Application A was made to the crops at the beginning of infestations; for these trials, Stage BBCH 59; Application B was made 14 days after Application A. Trial 3 was conducted in Thailand using a water volume of 500 L/ha of water per application unless otherwise indicated. Insect Damage ([…] %), Insect Damage (Number) and Phytotoxicity were assessed at various treatment evaluation intervals. Population levels were recorded by counting number of rice plants per hill, number of white head (damage from rice stem borer) followed by calculation of % insect damage. Trial 4 was conducted in Thailand using a water volume of 500 L/ha of water per application unless otherwise indicated. Insect Damage ([…] %), Insect Damage (Number) and Phytotoxicity were assessed at various treatment evaluation intervals. Population levels were recorded by counting number of rice plants per hill, number of white head (damage from rice stem borer) followed by calculation of % insect damage.

[1] = Trial 3, 21 DAB, water volume 500 L/ha, rate in treatment name, Prevathon 0.5 L/ha, listed as PA 2600 g/ha
[2] = Trial 4, 0 DAA, water volume 200 L/ha
[3] = Trial 4, 0 DAB, water volume 200 L/ha
[4] = Trial 4, 0 DAB, water volume 500 L/ha, rate in treatment name, Prevathon 0.5 L/ha, listed as PA 585 g/ha
[5] = Trial 4, 0 DAB, water volume 500 L/ha, rate in treatment name, Prevathon 0.5 L/ha, listed as PA 975 g/ha
[6] = Trial 4, 0 DAB, water volume 500 L/ha, rate in treatment name, Prevathon 0.5 L/ha, listed as PA 1300 g/ha
[7] = Trial 4, 0 DAB, water volume 500 L/ha, rate in treatment name, Prevathon 0.5 L/ha, listed as PA 2600 g/ha
[8] = Trial 4, 7 DAA, water volume 200 L/ha
[9] = Trial 4, 7 DAA, water volume 500 L/ha, rate in treatment name, Prevathon 0.5 L/ha, listed as PA 585 g/ha
[10] = Trial 4, 7 DAA, water volume 500 L/ha, rate in treatment name, Prevathon 0.5 L/ha, listed as PA 975 g/ha
[11] = Trial 4, 7 DAA, water volume 500 L/ha, rate in treatment name, Prevathon 0.5 L/ha, listed as PA 1300 g/ha
[12] = Trial 4, 7 DAA, water volume 500 L/ha, rate in treatment name, Prevathon 0.5 L/ha, listed as PA 2600 g/ha
[13] = Trial 4, 7 DAB, water volume 200 L/ha
[14] = Trial 4, 7 DAB, water volume 500 L/ha, rate in treatment name, Prevathon 0.5 L/ha, listed as PA 585 g/ha
[15] = Trial 4, 7 DAB, water volume 500 L/ha, rate in treatment name, Prevathon 0.5 L/ha, listed as PA 975 g/ha
[16] = Trial 4, 7 DAB, water volume 500 L/ha, rate in treatment name, Prevathon 0.5 L/ha, listed as PA 1300 g/ha
[17] = Trial 4, 7 DAB, water volume 500 L/ha, rate in treatment name, Prevathon 0.5 L/ha, listed as PA 2600 g/ha
[18] = Trial 4, 10 DAA, water volume 200 L/ha
[19] = Trial 4, 10 DAA, water volume 500 L/ha, rate in treatment name, Prevathon 0.5 L/ha, listed as PA 585 g/ha
[20] = Trial 4, 10 DAA, water volume 500 L/ha, rate in treatment name, Prevathon 0.5 L/ha, listed as PA 975 g/ha
[21] = Trial 4, 10 DAA, water volume 500 L/ha, rate in treatment name, Prevathon 0.5 L/ha, listed as PA 1300 g/ha
[22] = Trial 4, 10 DAA, water volume 500 L/ha, rate in treatment name, Prevathon 0.5 L/ha, listed as PA 2600 g/ha
[23] = Trial 4, 10 DAB, water volume 200 L/ha
[24] = Trial 4, 10 DAB, water volume 500 L/ha, rate in treatment name, Prevathon 0.5 L/ha, listed as PA 585 g/ha
[25] = Trial 4, 10 DAB, water volume 500 L/ha, rate in treatment name, Prevathon 0.5 L/ha, listed as PA 975 g/ha
[26] = Trial 4, 10 DAB, water volume 500 L/ha, rate in treatment name, Prevathon 0.5 L/ha, listed as PA 1300 g/ha
[27] = Trial 4, 10 DAB, water volume 500 L/ha, rate in treatment name, Prevathon 0.5 L/ha, listed as PA 2600 g/ha
[28] = Trial 4, 14 DAB, water volume 200 L/ha
[29] = Trial 4, 14 DAB, water volume 500 L/ha, rate in treatment name, Prevathon 0.5 L/ha, listed as PA 585 g/ha
[30] = Trial 4, 14 DAB, water volume 500 L/ha, rate in treatment name, Prevathon 0.5 L/ha, listed as PA 975 g/ha
[31] = Trial 4, 14 DAB, water volume 500 L/ha, rate in treatment name, Prevathon 0.5 L/ha, listed as PA 1300 g/ha
[32] = Trial 4, 14 DAB, water volume 500 L/ha, rate in treatment name, Prevathon 0.5 L/ha, listed as PA 2600 g/ha
[33] = Trial 4, 21 DAB, water volume 200 L/ha
[34] = Trial 4, 21 DAB, water volume 500 L/ha, rate in treatment name, Prevathon 0.5 L/ha, listed as PA 585 g/ha
[35] = Trial 4, 21 DAB, water volume 500 L/ha, rate in treatment name, Prevathon 0.5 L/ha, listed as PA 975 g/ha
[36] = Trial 4, 21 DAB, water volume 500 L/ha, rate in treatment name, Prevathon 0.5 L/ha, listed as PA 1300 g/ha
[37] = Trial 4, 21 DAB, water volume 500 L/ha, rate in treatment name, Prevathon 0.5 L/ha, listed as PA 2600 g/ha

SMILES: CCCCCCCCC(=O)O [PA 650 g/ha, pelargonic acid]
- DAMINS % (insect damage, % white heads) [1]: 0.19%
- DAMINS (number): mean number of insect damage (white head symptoms) [1]: 0.75
- DAMINS (number): mean number of insect damage (white head symptoms) [2]: 5.5
- percent reduction in insect damage relative to untreated control [2]: 0%
- percent reduction in insect damage relative to untreated control (Trial 4, 0 DAA, water volume 500 L/ha, rate in treatment name, Prevathon 0.5 L/ha): 0%
- DAMINS (number): mean number of insect damage (white head symptoms) (Trial 4, 0 DAA, water volume 500 L/ha, rate in treatment name, Prevathon 0.5 L/ha, listed as PA 585 g/ha): 4.57
- DAMINS (number): mean number of insect damage (white head symptoms) (Trial 4, 0 DAA, water volume 500 L/ha, rate in treatment name, Prevathon 0.5 L/ha, listed as PA 975 g/ha): 5.19
- DAMINS (number): mean number of insect damage (white head symptoms) (Trial 4, 0 DAA, water volume 500 L/ha, rate in treatment name, Prevathon 0.5 L/ha, listed as PA 1300 g/ha): 5.23
- DAMINS (number): mean number of insect damage (white head symptoms) (Trial 4, 0 DAA, water volume 500 L/ha, rate in treatment name, Prevathon 0.5 L/ha, listed as PA 2600 g/ha): 5.07
- DAMINS (number): mean number of insect damage (white head symptoms) [3]: 1.36
- percent reduction in insect damage relative to untreated control [3]: 71.53%
- percent reduction in insect damage relative to untreated control [4]: 22.87%
- percent reduction in insect damage relative to untreated control [5]: 28.25%
- percent reduction in insect damage relative to untreated control [6]: 38.54%
- percent reduction in insect damage relative to untreated control [7]: 67.46%
- DAMINS (number): mean number of insect damage (white head symptoms) [4]: 3.57
- DAMINS (number): mean number of insect damage (white head symptoms) [5]: 3.34
- DAMINS (number): mean number of insect damage (white head symptoms) [6]: 2.88
- DAMINS (number): mean number of insect damage (white head symptoms) [7]: 1.49
- DAMINS (number): mean number of insect damage (white head symptoms) [8]: 2.94
- percent reduction in insect damage relative to untreated control [8]: 62.66%
- percent reduction in insect damage relative to untreated control [9]: 15.96%
- percent reduction in insect damage relative to untreated control [10]: 22.58%
- percent reduction in insect damage relative to untreated control [11]: 44.41%
- percent reduction in insect damage relative to untreated control [12]: 51.10%
- DAMINS (number): mean number of insect damage (white head symptoms) [9]: 6.67
- DAMINS (number): mean number of insect damage (white head symptoms) [10]: 6.09
- DAMINS (number): mean number of insect damage (white head symptoms) [11]: 4.38
- DAMINS (number): mean number of insect damage (white head symptoms) [12]: 3.87
- DAMINS (number): mean number of insect damage (white head symptoms) [13]: 0.76
- percent reduction in insect damage relative to untreated control [13]: 80.70%
- percent reduction in insect damage relative to untreated control [14]: 27.16%
- percent reduction in insect damage relative to untreated control [15]: 36.66%
- percent reduction in insect damage relative to untreated control [16]: 49.64%
- percent reduction in insect damage relative to untreated control [17]: 66.66%
- DAMINS (number): mean number of insect damage (white head symptoms) [14]: 2.86
- DAMINS (number): mean number of insect damage (white head symptoms) [15]: 2.52
- DAMINS (number): mean number of insect damage (white head symptoms) [16]: 1.93
- DAMINS (number): mean number of insect damage (white head symptoms) [17]: 1.32
- DAMINS (number): mean number of insect damage (white head symptoms) [18]: 1.76
- percent reduction in insect damage relative to untreated control [18]: 80.59%
- percent reduction in insect damage relative to untreated control [19]: 40.99%
- percent reduction in insect damage relative to untreated control [20]: 44.26%
- percent reduction in insect damage relative to untreated control [21]: 56.19%
- percent reduction in insect damage relative to untreated control [22]: 72.62%
- DAMINS (number): mean number of insect damage (white head symptoms) [19]: 5.33
- DAMINS (number): mean number of insect damage (white head symptoms) [20]: 4.99
- DAMINS (number): mean number of insect damage (white head symptoms) [21]: 3.94
- DAMINS (number): mean number of insect damage (white head symptoms) [22]: 2.48
- DAMINS (number): mean number of insect damage (white head symptoms) [23]: 1.06
- percent reduction in insect damage relative to untreated control [23]: 77.49%
- percent reduction in insect damage relative to untreated control [24]: 22.53%
- percent reduction in insect damage relative to untreated control [25]: 51.13%
- percent reduction in insect damage relative to untreated control [26]: 61.44%
- percent reduction in insect damage relative to untreated control [27]: 74.82%
- DAMINS (number): mean number of insect damage (white head symptoms) [24]: 3.71
- DAMINS (number): mean number of insect damage (white head symptoms) [25]: 2.35
- DAMINS (number): mean number of insect damage (white head symptoms) [26]: 1.86
- DAMINS (number): mean number of insect damage (white head symptoms) [27]: 1.19
- DAMINS (number): mean number of insect damage (white head symptoms) [28]: 0.9
- percent reduction in insect damage relative to untreated control [28]: 80.46%
- percent reduction in insect damage relative to untreated control [29]: 19.69%
- percent reduction in insect damage relative to untreated control [30]: 40.42%
- percent reduction in insect damage relative to untreated control [31]: 46.02%
- percent reduction in insect damage relative to untreated control [32]: 76.77%
- DAMINS (number): mean number of insect damage (white head symptoms) [29]: 3.78
- DAMINS (number): mean number of insect damage (white head symptoms) [30]: 2.74
- DAMINS (number): mean number of insect damage (white head symptoms) [31]: 2.54
- DAMINS (number): mean number of insect damage (white head symptoms) [32]: 1.1
- DAMINS (number): mean number of insect damage (white head symptoms) [33]: 1.24
- percent reduction in insect damage relative to untreated control [33]: 74.20%
- percent reduction in insect damage relative to untreated control [34]: 29.88%
- percent reduction in insect damage relative to untreated control [35]: 37.44%
- percent reduction in insect damage relative to untreated control [36]: 52.85%
- percent reduction in insect damage relative to untreated control [37]: 71.12%
- DAMINS (number): mean number of insect damage (white head symptoms) [34]: 3.3
- DAMINS (number): mean number of insect damage (white head symptoms) [35]: 2.96
- DAMINS (number): mean number of insect damage (white head symptoms) [36]: 2.26
- DAMINS (number): mean number of insect damage (white head symptoms) [37]: 1.38
